Measurements reported in patent publication US12325697B2 (Nimbus Clio, Inc., priority 2021, dated 2025).

What was measured:
[1] = system: Jurkat (clone E6-1) cells, NFAT luciferase reporter; test: Jurkat Reporter Assay (NFAT Luciferase); format: cell-based; details: Homo sapiens, anti-CD3 stimulation, 6 hr, read-out: Jurkat NFAT EC50
[2] = molecular target: Recombinant human Cbl-b (aa 36-427) (Homo sapiens (Human), UniProt Q13191); test: Cbl-b Biochemical Assay (TR-FRET); details: read-out: TR-FRET hCbl-b IC50
How it was run: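 IC50 from 4-parameter fit of % inhibition (DMSO max, reference-inhibitor min), duplicate ten-point series. Compound preincubated with 6 nM Cbl-b, then Src-Zap70 (1-2.5 nM)/0.5 mM ATP reaction 60 min RT; EDTA quench with labelled UBE2D2-Ub and streptavidin-terbium, 60 min, HTRF at 520 nm.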

[3] = molecular target: Recombinant human c-Cbl (aa 47-435) (Homo sapiens (Human), UniProt P22681); test: c-Cbl Biochemical Assay (TR-FRET)
How it was run: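 TR-FRET binding of UBE2D2-Ub-Bodipy (100 nM) to biotinylated c-Cbl (aa 47-435, 6 nM) via Streptavidin-Tb, measured after c-Cbl activation by Src-Zap70 with 0.5 mM ATP (60-90 min RT, 30 min compound preincubation). Ten-point half-log dilutions, 1% DMSO; IC50 by 4-parameter fit of normalized inhibition.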

Chain of Recombinant human c-Cbl (aa 47-435) (P22681 47-435): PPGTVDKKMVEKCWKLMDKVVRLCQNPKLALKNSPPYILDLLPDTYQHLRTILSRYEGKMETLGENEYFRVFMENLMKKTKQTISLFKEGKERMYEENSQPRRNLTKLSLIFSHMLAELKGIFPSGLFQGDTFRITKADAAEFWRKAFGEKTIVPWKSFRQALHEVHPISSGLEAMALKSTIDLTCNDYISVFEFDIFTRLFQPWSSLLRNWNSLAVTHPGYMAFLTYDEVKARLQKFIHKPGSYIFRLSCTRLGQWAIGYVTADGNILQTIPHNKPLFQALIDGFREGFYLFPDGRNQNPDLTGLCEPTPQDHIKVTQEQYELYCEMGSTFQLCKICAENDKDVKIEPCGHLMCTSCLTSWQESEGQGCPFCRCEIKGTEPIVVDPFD
Chain of Recombinant human Cbl-b (aa 36-427) (Q13191 36-427): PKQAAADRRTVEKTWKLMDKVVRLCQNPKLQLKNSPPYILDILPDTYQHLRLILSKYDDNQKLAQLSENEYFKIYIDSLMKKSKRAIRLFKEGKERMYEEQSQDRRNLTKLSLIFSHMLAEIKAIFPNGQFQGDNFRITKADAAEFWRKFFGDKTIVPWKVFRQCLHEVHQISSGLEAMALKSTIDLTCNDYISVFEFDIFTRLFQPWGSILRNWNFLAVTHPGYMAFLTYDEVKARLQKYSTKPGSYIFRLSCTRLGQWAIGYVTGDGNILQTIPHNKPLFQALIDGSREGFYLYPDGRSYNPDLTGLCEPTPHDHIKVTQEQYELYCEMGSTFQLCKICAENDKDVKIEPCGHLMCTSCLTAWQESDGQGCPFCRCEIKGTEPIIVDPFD

Q: For Cn1cnnc1-c1ccccc1-c1cc(N2Cc3c(cc(CO)cc3C(F)(F)F)C2=O)nc(N2Cc3c(cc(CO)cc3C(F)(F)F)C2=O)c1 [ACX-2, 6-(Hydroxymethyl)-2-{6-[6-(hydroxymethyl)-1-oxo-4-(trifluoromethyl)-3H-isoindol-2-yl]-4-[2-(4-methyl-1,2,4-triazol-3-yl)phenyl]pyridin-2-yl}-4-(trifluoromethyl)-3H-isoindol-1-one], which EC50 [1] is on record?
A: 10000 to 50000 nM

Q: What about the IC50 [2] of the same compound?
A: 10000 to 50000 nM

Q: For CCNc1cc(-c2c(-c3nncn3C)cnn2C)cc(N2Cc3c(cc(CNCCOCCOCCOCCNC(=O)CCc4ccc5n4[B-](F)(F)[N+]4=C(c6ccc[nH]6)C=CC4=C5)cc3C(F)(F)F)C2=O)n1 [ACZ-5], which EC50 [1] is on record?
A: 10000 to 50000 nM

Q: And the IC50 [2]?
A: ≤ 200 nM

Q: Which EC50 [1] does the source give for CCNc1cc(-c2c(-c3nncn3C)cnn2C)cc(N2Cc3c(cc(COC4CCN(C)CC4)cc3C(F)(F)F)C2=O)n1 [ADA-2, 2-[6-(Ethylamino)-4-[2-methyl-4-(4-methyl-1,2,4-triazol-3-yl)pyrazol-3-yl]pyridin-2-yl]-6-{[(1-methylpiperidin-4-yl)oxy]methyl}-4-(trifluoromethyl)-3H-isoindol-1-one] here?
A: 1000 to 10000 nM

Q: Which results are given for CCNc1cc(-c2c(-c3nncn3C)cnn2C)cc(N2Cc3c(cc(CNCCOCCOCCOCCNC(=O)CCc4ccc5n4[B-](F)(F)[N+]4=C(C)C=C(C)C4=C5)cc3C(F)(F)F)C2=O)n1 [ADD-2, 4-{2-[(1-{2-[6-(Ethylamino)-4-[2-methyl-4-(4-methyl-1,2,4-triazol-3-yl)pyrazol-3-yl]pyridin-2-yl]-3-oxo-7-(trifluoromethyl)-1H-isoindol-5-yl}-5,8,11-trioxa-2-azatridecan-13-yl)carbamoyl]ethyl}-2,2-difluoro-10,12-dimethyl-1lambda5,3-diaza-2-boratricyclo[7.3.0.0^{3,7}]dodeca-1(12),4,6,8,10-pentaen-1-ylium-2-uide]?
A: EC50 [1]: 10000 to 50000 nM; IC50 [2]: 10000 to 50000 nM

Q: CCNc1cc(-c2c(-c3nncn3C)cnn2C)cc(N2Cc3c(cc(COc4cnoc4)cc3C(F)(F)F)C2=O)n1 [ADE-2, 2-[6-(Ethylamino)-4-[2-methyl-4-(4-methyl-1,2,4-triazol-3-yl)pyrazol-3-yl]pyridin-2-yl]-6-[(1,2-oxazol-4-yloxy)methyl]-4-(trifluoromethyl)-3H-isoindol-1-one] was tested. Which EC50 [1] did it give?
A: 1000 to 10000 nM

Q: And the IC50 [2]?
A: ≤ 200 nM

Q: Cn1cnnc1-c1cc(C#N)ccc1-c1cccc(N2Cc3c(cc(CO)cc3C(F)(F)F)C2=O)c1 [ADG-3, 3′-[6-(Hydroxymethyl)-1-oxo-4-(trifluoromethyl)-3H-isoindol-2-yl]-2-(4-methyl-1,2,4-triazol-3-yl)-[1,1′-biphenyl]-4-carbonitrile] was tested. Which EC50 [1] did it give?
A: 10000 to 50000 nM

Q: And the IC50 [2]?
A: ≤ 200 nM

Q: Which EC50 [1] does the source give for CCNc1cc(-c2c(-c3nncn3C)cnn2C)cc(N2Cc3c(cc(CO[C@H]4CCC[C@H]4O)cc3C(F)(F)F)C2=O)n1 [ADI-1, 2-[6-(Ethylamino)-4-[2-methyl-4-(4-methyl-1,2,4-triazol-3-yl)pyrazol-3-yl]pyridin-2-yl]-6-({[(1S,2R)-2-hydroxycyclopentyl]oxy}methyl)-4-(trifluoromethyl)-3H-isoindol-1-one] here?
A: 200 to 1000 nM

Q: What about the IC50 [2] of the same compound?
A: ≤ 200 nM

Q: Which EC50 [1] does the source give for Cn1cnnc1-c1cc(C(N)=O)ccc1-c1cccc(N2Cc3c(cc(CO)cc3C(F)(F)F)C2=O)c1 [ADK-1, 3′-[6-(Hydroxymethyl)-1-oxo-4-(trifluoromethyl)-3H-isoindol-2-yl]-2-(4-methyl-1,2,4-triazol-3-yl)-[1,1′-biphenyl]-4-carboxamide] here?
A: 10000 to 50000 nM

Q: What about the IC50 [2] of the same compound?
A: 1000 to 10000 nM

Q: Cn1cnnc1-c1ccccc1-c1cccc(N2Cc3c(cc(CO[C@@H]4CCC[C@H]4O)cc3C(F)(F)F)C2=O)c1 [ADL-4, 6-({[(1R,2R)-2-Hydroxycyclopentyl]oxy}methyl)-2-[2′-(4-methyl-1,2,4-triazol-3-yl)-[1,1′-biphenyl]-3-yl]-4-(trifluoromethyl)-3H-isoindol-1-one] was tested. Which EC50 [1] did it give?
A: 1000 to 10000 nM

Q: What about the IC50 [2] of the same compound?
A: ≤ 200 nM

Q: Which results are given for Cn1cnnc1-c1ccc(C#N)cc1-c1cccc(N2Cc3c(cc(CO)cc3C(F)(F)F)C2=O)c1 [ADM-6, 3′-[6-(Hydroxymethyl)-1-oxo-4-(trifluoromethyl)-3H-isoindol-2-yl]-6-(4-methyl-1,2,4-triazol-3-yl)-[1,1′-biphenyl]-3-carbonitrile]?
A: EC50 [1]: 10000 to 50000 nM; IC50 [2]: 200 to 1000 nM

Q: For CCNc1cc(-c2cc(C#N)ccc2-c2nncn2C)cc(N2Cc3c(cccc3C(F)(F)F)C2=O)n1 [ADS-6, 3-[2-(Ethylamino)-6-[1-oxo-4-(trifluoromethyl)-3H-isoindol-2-yl]pyridin-4-yl]-4-(4-methyl-1,2,4-triazol-3-yl)benzonitrile], which EC50 [1] is on record?
A: 1000 to 10000 nM

Q: What about the IC50 [2] of the same compound?
A: ≤ 200 nM

Q: With Cn1cnnc1-c1cc(C#N)ccc1-c1cccc(C(=O)Nc2cc(CN[C@@H]3CCC[C@@H]3O)cc(C(F)(F)F)c2N)c1 [ADW-5, N-[2-Amino-5-({[(1R,2S)-2-hydroxycyclopentyl]amino}methyl)-3-(trifluoromethyl)phenyl]-4′-cyano-2′-(4-methyl-1,2,4-triazol-3-yl)-[1,1′-biphenyl]-3-carboxamide] as the compound, how does the EC50 [1] read?
A: 10000 to 50000 nM

Q: And the IC50 [2]?
A: 1000 to 10000 nM

Q: Which EC50 [1] does the source give for CCNc1cc(-c2c(-c3nncn3C)cnn2C)cc(N2Cc3c(cc(COCC(C)(C)O)cc3C(F)(F)F)C2=O)n1 [ADY-2, 2-[6-(Ethylamino)-4-[2-methyl-4-(4-methyl-1,2,4-triazol-3-yl)pyrazol-3-yl]pyridin-2-yl]-6-[(2-hydroxy-2-methylpropoxy)methyl]-4-(trifluoromethyl)-3H-isoindol-1-one] here?
A: 200 to 1000 nM

Q: What about the IC50 [2] of the same compound?
A: ≤ 200 nM

Q: What does the source list for Cn1cnnc1-c1cc(C#N)ccc1-c1cccc(N2Cc3c(cc(CNCCO)cc3C(F)(F)F)C2=O)c1 [AEA-2, 3′-(6-{[(2-Hydroxyethyl)amino]methyl}-1-oxo-4-(trifluoromethyl)-3H-isoindol-2-yl)-2-(4-methyl-1,2,4-triazol-3-yl)-[1,1′-biphenyl]-4-carbonitrile]?
A: EC50 [1]: 1000 to 10000 nM; IC50 [2]: ≤ 200 nM

Q: For CCNc1cc(-c2c(-c3nncn3C)cnn2C)cc(N2Cc3ccc(CNCC4(O)CCC4)cc3C2=O)n1 [AEE-2, 2-[6-(Ethylamino)-4-[2-methyl-4-(4-methyl-1,2,4-triazol-3-yl)pyrazol-3-yl]pyridin-2-yl]-6-({[(1-hydroxycyclobutyl)methyl]amino}methyl)-3H-isoindol-1-one], which EC50 [1] is on record?
A: 200 to 1000 nM

Q: What about the IC50 [2] of the same compound?
A: ≤ 200 nM

Q: How did the EC50 [1] turn out when Cn1cnnc1-c1cc(C#N)ccc1-c1cc(C2CC2)nc(N2Cc3c(cccc3C(F)(F)F)C2=O)c1 [AEG-3, 4-{2-Cyclopropyl-6-[1-oxo-4-(trifluoromethyl)-3H-isoindol-2-yl]pyridin-4-yl}-3-(4-methyl-1,2,4-triazol-3-yl)benzonitrile] was run?
A: 200 to 1000 nM

Q: And the IC50 [2]?
A: ≤ 200 nM

Q: How did the EC50 [1] turn out when CCNc1cc(-c2c(-c3nncn3C)cnn2C)cc(N2Cc3c(cc(CN(C)CC4(OC)CCC4)cc3C(F)(F)F)C2=O)n1 [AEK-3, 2-(6-(Ethylamino)-4-(1-methyl-4-(4-methyl-4H-1,2,4-triazol-3-yl)-1H-pyrazol-5-yl)pyridin-2-yl)-6-((((1-methoxycyclobutyl)methyl)(methyl)amino)methyl)-4-(trifluoromethyl)isoindolin-1-one] was run?
A: 200 to 1000 nM

Q: And the IC50 [2]?
A: ≤ 200 nM

Q: With CCNc1cc(-c2ccc(C#N)cc2-c2nncn2C)cc(N2Cc3c(cc(N4CCCC4)cc3C(F)(F)F)C2=O)n1 [AEP-2, 4-[2-(Ethylamino)-6-[1-oxo-6-(pyrrolidin-1-yl)-4-(trifluoromethyl)-3H-isoindol-2-yl]pyridin-4-yl]-3-(4-methyl-1,2,4-triazol-3-yl)benzonitrile] as the compound, how does the EC50 [1] read?
A: 10000 to 50000 nM

Q: What about the IC50 [2] of the same compound?
A: 200 to 1000 nM

Q: Which EC50 [1] does the source give for COc1ccc2c(c1)CN(c1cc(-c3ccccc3-c3nncn3C)cc(C3CC3)n1)C2=O [AER-1] here?
A: 10000 to 50000 nM

Q: What about the IC50 [2] of the same compound?
A: ≤ 200 nM

Q: With Cn1cnnc1-c1cc(C#N)ccc1-c1ccnc(N2Cc3c(cc(CO)cc3C(F)(F)F)C2=O)c1 [AEX-2, 4-{2-[6-(Hydroxymethyl)-1-oxo-4-(trifluoromethyl)-3H-isoindol-2-yl]pyridin-4-yl}-3-(4-methyl-1,2,4-triazol-3-yl) benzonitrile] as the compound, how does the EC50 [1] read?
A: 1000 to 10000 nM

Q: And the IC50 [2]?
A: ≤ 200 nM

Q: What does the source list for Cn1cnnc1-c1cc(C#N)ccc1-c1cc(C2CC2)nc(N2Cc3c(cc(CNCC4(O)CCC4)c(F)c3F)C2=O)c1 [AOX-1, 4-{2-Cyclopropyl-6-[4,5-difluoro-6-({[(1-hydroxycyclobutyl)methyl]amino}methyl)-1-oxo-3H-isoindol-2-yl]pyridin-4-yl}-3-(4-methyl-1,2,4-triazol-3-yl)benzonitrile]?
A: IC50 [3]: ≤ 200 nM; IC50 [2]: ≤ 200 nM

Q: Which results are given for COC[C@@H]1CCCN1Cc1cc(F)c2c(c1)C(=O)N(c1cc(-c3ccc(C#N)cc3-c3nncn3C)cc(C3CC3)n1)C2 [AOY-2, (S)-4-(2-Cyclopropyl-6-(4-fluoro-6-((2-(methoxymethyl)pyrrolidin-1-yl)methyl)-1-oxoisoindolin-2-yl)pyridin-4-yl)-3-(4-methyl-4H-1,2,4-triazol-3-yl)benzonitrile]?
A: IC50 [3]: ≤ 200 nM; IC50 [2]: ≤ 200 nM

Q: Which IC50 [3] does the source give for Cn1cnnc1-c1cc(C#N)ccc1-c1cc(C2CC2)nc(N2Cc3c(F)cc(CN4CCC[C@H]4CF)cc3C2=O)c1 [APA-2, 4-[2-Cyclopropyl-6-(4-fluoro-6-{[(2S)-2-(fluoromethyl)pyrrolidin-1-yl]methyl}-1-oxo-3H-isoindol-2-yl)pyridin-4-yl]-3-(4-methyl-1,2,4-triazol-3-yl)benzonitrile] here?
A: ≤ 200 nM

Q: And the IC50 [2]?
A: ≤ 200 nM

Q: Which IC50 [3] does the source give for COC[C@H]1CCCN1Cc1cc(F)c2c(c1)C(=O)N(c1cc(-c3ccc(C#N)cc3-c3nncn3C)cc(C3CC3)n1)C2 [APB-2, 4-[2-Cyclopropyl-6-(4-fluoro-6-{[(2R)-2-(methoxymethyl)pyrrolidin-1-yl]methyl}-1-oxo-3H-isoindol-2-yl)pyridin-4-yl]-3-(4-methyl-1,2,4-triazol-3-yl)benzonitrile] here?
A: ≤ 200 nM

Q: And the IC50 [2]?
A: ≤ 200 nM
